In patent publication US20260297081A1, “COMPOUNDS AND METHODS OF TREATING CANCERS” (Cullgen Inc., priority 2023, published 2026):

Target: CDK4 (Homo sapiens, UniProt P11802+Q16531)
Test: HiBiT detection of HiBiT-tagged CDK4 protein level in MCF7 cells, 16 hours (Table 8)
Assay type: cell-based
Design: expressed in transfected cells; host or cells: MCF7
Settings: MCF7 cells stably expressing HiBiT tagged target proteins; for activity at 0.01 µM: 10 nM, read-out: % CDK4 Relative Level (10 nM); for activity at 0.1 µM: 100 nM, read-out: % CDK4 Relative Level (100 nM)
Description: HiBiT detection system quantitatively measures total amounts of HiBiT-tagged proteins using a luminescent based method. MCF7 cells stably expressing HiBiT tagged target proteins were treated with heterobifunctional compounds at indicated concentrations for 16 hours, then lysed with Nano-Glo HiBiT Lytic detection reagents.

Sequence of CDK4 (P11802 whole entry): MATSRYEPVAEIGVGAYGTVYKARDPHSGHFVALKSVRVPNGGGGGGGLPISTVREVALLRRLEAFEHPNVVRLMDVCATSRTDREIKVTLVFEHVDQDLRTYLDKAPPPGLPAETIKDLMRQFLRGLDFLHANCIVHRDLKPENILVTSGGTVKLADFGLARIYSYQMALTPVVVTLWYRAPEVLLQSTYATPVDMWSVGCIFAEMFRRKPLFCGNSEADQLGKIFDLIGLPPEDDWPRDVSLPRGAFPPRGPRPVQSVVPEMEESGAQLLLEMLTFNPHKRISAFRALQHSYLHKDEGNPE
Sequence of CDK4 (P24385 whole entry partner): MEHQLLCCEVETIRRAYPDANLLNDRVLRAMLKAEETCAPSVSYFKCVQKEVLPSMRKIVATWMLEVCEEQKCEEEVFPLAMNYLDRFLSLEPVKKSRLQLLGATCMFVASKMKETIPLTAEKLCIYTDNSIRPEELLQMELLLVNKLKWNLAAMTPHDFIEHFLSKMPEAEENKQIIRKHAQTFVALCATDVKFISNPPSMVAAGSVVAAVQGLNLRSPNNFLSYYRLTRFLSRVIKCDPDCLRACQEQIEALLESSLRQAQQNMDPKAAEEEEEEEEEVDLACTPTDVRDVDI
Sequence of CDK4 (Q16531 2-1140 limits assumed): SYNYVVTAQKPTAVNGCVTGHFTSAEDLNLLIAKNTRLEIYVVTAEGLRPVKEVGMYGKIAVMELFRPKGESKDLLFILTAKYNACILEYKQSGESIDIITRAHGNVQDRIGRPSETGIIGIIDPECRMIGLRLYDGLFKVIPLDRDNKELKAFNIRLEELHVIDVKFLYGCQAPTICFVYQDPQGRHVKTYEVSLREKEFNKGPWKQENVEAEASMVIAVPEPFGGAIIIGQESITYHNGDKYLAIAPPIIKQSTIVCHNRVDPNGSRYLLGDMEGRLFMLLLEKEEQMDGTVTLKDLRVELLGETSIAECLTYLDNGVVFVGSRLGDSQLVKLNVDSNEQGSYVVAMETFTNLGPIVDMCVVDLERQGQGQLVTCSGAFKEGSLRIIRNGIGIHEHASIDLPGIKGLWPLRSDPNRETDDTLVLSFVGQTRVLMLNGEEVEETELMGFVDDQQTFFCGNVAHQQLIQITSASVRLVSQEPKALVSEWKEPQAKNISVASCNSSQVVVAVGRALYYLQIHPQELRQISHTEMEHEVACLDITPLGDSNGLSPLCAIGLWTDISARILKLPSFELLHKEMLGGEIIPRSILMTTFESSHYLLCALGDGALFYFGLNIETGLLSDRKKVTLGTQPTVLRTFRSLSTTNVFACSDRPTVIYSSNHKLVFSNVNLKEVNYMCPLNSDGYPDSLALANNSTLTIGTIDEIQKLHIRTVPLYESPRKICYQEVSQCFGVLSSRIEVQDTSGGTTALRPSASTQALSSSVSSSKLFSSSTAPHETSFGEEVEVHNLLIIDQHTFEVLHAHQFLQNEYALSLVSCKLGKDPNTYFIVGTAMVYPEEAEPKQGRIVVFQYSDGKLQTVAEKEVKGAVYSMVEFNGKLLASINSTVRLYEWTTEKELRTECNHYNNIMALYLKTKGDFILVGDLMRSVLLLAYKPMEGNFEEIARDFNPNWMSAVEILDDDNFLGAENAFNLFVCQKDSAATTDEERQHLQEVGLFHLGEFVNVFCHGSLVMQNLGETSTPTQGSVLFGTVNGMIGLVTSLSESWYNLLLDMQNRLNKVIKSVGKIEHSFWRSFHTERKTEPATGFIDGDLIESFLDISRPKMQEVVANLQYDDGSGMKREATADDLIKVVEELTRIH

## CNc1ccc(C(=O)Nc2ccc(N(C)C)nn2)c(NCCCCC(=O)N2CCN(c3ccc(Nc4ncc(F)c(-c5cc(F)c6nc(C)n(C(C)C)c6c5)n4)nc3)CC2)n1 [CPD-650, N-(6-(dimethylamino)pyridazin-3-yl)-2-((5-(4-(6-((5-fluoro-4-(4-fluoro-1-isopropyl-2-methyl-1H-benzo[d]imidazol-6-yl)pyrimidin-2-yl)amino)pyridin-3-yl)piperazin-1-yl)-5-oxopentyl)amino)-6-(methylamino)nicotinamide]
  activity at 0.01 µM: > 85%
  activity at 0.1 µM: > 85%

## CNc1ccc(C(=O)Nc2ccc(N(C)C)nn2)c(NCCCCCC(=O)N2CCN(c3ccc(Nc4ncc(F)c(-c5cc(F)c6nc(C)n(C(C)C)c6c5)n4)nc3)CC2)n1 [CPD-651, N-(6-(dimethylamino)pyridazin-3-yl)-2-((6-(4-(6-((5-fluoro-4-(4-fluoro-1-isopropyl-2-methyl-1H-benzo[d]imidazol-6-yl)pyrimidin-2-yl)amino)pyridin-3-yl)piperazin-1-yl)-6-oxohexyl)amino)-6-(methylamino)nicotinamide]
  activity at 0.01 µM: > 85%
  activity at 0.1 µM: > 85%

## CNc1ccc(C(=O)Nc2ccc(N(C)C)nn2)c(NCCCCCCC(=O)N2CCN(c3ccc(Nc4ncc(F)c(-c5cc(F)c6nc(C)n(C(C)C)c6c5)n4)nc3)CC2)n1 [CPD-652, N-(6-(dimethylamino)pyridazin-3-yl)-2-((7-(4-(6-((5-fluoro-4-(4-fluoro-1-isopropyl-2-methyl-1H-benzo[d]imidazol-6-yl)pyrimidin-2-yl)amino)pyridin-3-yl)piperazin-1-yl)-7-oxoheptyl)amino)-6-(methylamino)nicotinamide]
  activity at 0.01 µM: > 85%
  activity at 0.1 µM: > 85%

## CNc1ccc(C(=O)Nc2ccc(N(C)C)nn2)c(NCCCCCCCC(=O)N2CCN(c3ccc(Nc4ncc(F)c(-c5cc(F)c6nc(C)n(C(C)C)c6c5)n4)nc3)CC2)n1 [CPD-653, N-(6-(dimethylamino)pyridazin-3-yl)-2-((8-(4-(6-((5-fluoro-4-(4-fluoro-1-isopropyl-2-methyl-1H-benzo[d]imidazol-6-yl)pyrimidin-2-yl)amino)pyridin-3-yl)piperazin-1-yl)-8-oxooctyl)amino)-6-(methylamino)nicotinamide]
  activity at 0.01 µM: > 85%
  activity at 0.1 µM: > 85%

## CNc1ccc(C(=O)Nc2ccc(N(C)C)nn2)c(NCCOCCC(=O)N2CCN(c3ccc(Nc4ncc(F)c(-c5cc(F)c6nc(C)n(C(C)C)c6c5)n4)nc3)CC2)n1 [CPD-654, N-(6-(dimethylamino)pyridazin-3-yl)-2-((2-(3-(4-(6-((5-fluoro-4-(4-fluoro-1-isopropyl-2-methyl-1H-benzo[d]imidazol-6-yl)pyrimidin-2-yl)amino)pyridin-3-yl)piperazin-1-yl)-3-oxopropoxy)ethyl)amino)-6-(methylamino)nicotinamide]
  activity at 0.01 µM: > 85%
  activity at 0.1 µM: > 85%

## CNc1ccc(C(=O)Nc2ccc(N(C)C)nn2)c(NCCOCCOCCC(=O)N2CCN(c3ccc(Nc4ncc(F)c(-c5cc(F)c6nc(C)n(C(C)C)c6c5)n4)nc3)CC2)n1 [CPD-655, N-(6-(dimethylamino)pyridazin-3-yl)-2-((2-(2-(3-(4-(6-((5-fluoro-4-(4-fluoro-1-isopropyl-2-methyl-1H-benzo[d]imidazol-6-yl)pyrimidin-2-yl)amino)pyridin-3-yl)piperazin-1-yl)-3-oxopropoxy)ethoxy)ethyl)amino)-6-(methylamino)nicotinamide]
  activity at 0.01 µM: > 85%
  activity at 0.1 µM: > 85%

## CNc1ccc(C(=O)Nc2ccc(N(C)C)nn2)c(NCC(=O)N2CCN(Cc3ccc(Nc4ncc(F)c(-c5cc(F)c6nc(C)n(C(C)C)c6c5)n4)nc3)CC2)n1 [CPD-656, N-(6-(dimethylamino)pyridazin-3-yl)-2-((2-(4-((6-((5-fluoro-4-(4-fluoro-1-isopropyl-2-methyl-1H-benzo[d]imidazol-6-yl)pyrimidin-2-yl)amino)pyridin-3-yl)methyl)piperazin-1-yl)-2-oxoethyl)amino)-6-(methylamino)nicotinamide]
  activity at 0.01 µM: > 85%
  activity at 0.1 µM: > 85%

## CNc1ccc(C(=O)Nc2ccc(N(C)C)nn2)c(NCCNC(=O)CN2CCN(c3ccc(Nc4ncc(F)c(-c5cc(F)c6nc(C)n(C(C)C)c6c5)n4)nc3)CC2)n1 [CPD-658, N-(6-(dimethylamino)pyridazin-3-yl)-2-((2-(2-(4-(6-((5-fluoro-4-(4-fluoro-1-isopropyl-2-methyl-1H-benzo[d]imidazol-6-yl)pyrimidin-2-yl)amino)pyridin-3-yl)piperazin-1-yl)acetamido)ethyl)amino)-6-(methylamino)nicotinamide]
  activity at 0.01 µM: > 85%
  activity at 0.1 µM: > 85%

## CNc1ccc(C(=O)Nc2ccc(N(C)C)nn2)c(NCCCNC(=O)CN2CCN(c3ccc(Nc4ncc(F)c(-c5cc(F)c6nc(C)n(C(C)C)c6c5)n4)nc3)CC2)n1 [CPD-659, N-(6-(dimethylamino)pyridazin-3-yl)-2-((3-(2-(4-(6-((5-fluoro-4-(4-fluoro-1-isopropyl-2-methyl-1H-benzo[d]imidazol-6-yl)pyrimidin-2-yl)amino)pyridin-3-yl)piperazin-1-yl)acetamido)propyl)amino)-6-(methylamino)nicotinamide]
  activity at 0.01 µM: > 85%
  activity at 0.1 µM: > 85%

## CNc1ccc(C(=O)Nc2ccc(N(C)C)nn2)c(NCCCCNC(=O)CN2CCN(c3ccc(Nc4ncc(F)c(-c5cc(F)c6nc(C)n(C(C)C)c6c5)n4)nc3)CC2)n1 [CPD-660, N-(6-(dimethylamino)pyridazin-3-yl)-2-((4-(2-(4-(6-((5-fluoro-4-(4-fluoro-1-isopropyl-2-methyl-1H-benzo[d]imidazol-6-yl)pyrimidin-2-yl)amino)pyridin-3-yl)piperazin-1-yl)acetamido)butyl)amino)-6-(methylamino)nicotinamide]
  activity at 0.01 µM: > 85%
  activity at 0.1 µM: > 85%

## CNc1ccc(C(=O)Nc2ccc(N(C)C)nn2)c(NCCCCCNC(=O)CN2CCN(c3ccc(Nc4ncc(F)c(-c5cc(F)c6nc(C)n(C(C)C)c6c5)n4)nc3)CC2)n1 [CPD-661, N-(6-(dimethylamino)pyridazin-3-yl)-2-((5-(2-(4-(6-((5-fluoro-4-(4-fluoro-1-isopropyl-2-methyl-1H-benzo[d]imidazol-6-yl)pyrimidin-2-yl)amino)pyridin-3-yl)piperazin-1-yl)acetamido)pentyl)amino)-6-(methylamino)nicotinamide]
  activity at 0.01 µM: > 85%
  activity at 0.1 µM: > 85%

## CNc1ccc(C(=O)Nc2ccc(N(C)C)nn2)c(NCCCCCCNC(=O)CN2CCN(c3ccc(Nc4ncc(F)c(-c5cc(F)c6nc(C)n(C(C)C)c6c5)n4)nc3)CC2)n1 [CPD-662, N-(6-(dimethylamino)pyridazin-3-yl)-2-((6-(2-(4-(6-((5-fluoro-4-(4-fluoro-1-isopropyl-2-methyl-1H-benzo[d]imidazol-6-yl)pyrimidin-2-yl)amino)pyridin-3-yl)piperazin-1-yl)acetamido)hexyl)amino)-6-(methylamino)nicotinamide]
  activity at 0.01 µM: > 85%
  activity at 0.1 µM: > 85%

## CNc1ccc(C(=O)Nc2ccc(N(C)C)nn2)c(NCCCCCCCNC(=O)CN2CCN(c3ccc(Nc4ncc(F)c(-c5cc(F)c6nc(C)n(C(C)C)c6c5)n4)nc3)CC2)n1 [CPD-663, N-(6-(dimethylamino)pyridazin-3-yl)-2-((7-(2-(4-(6-((5-fluoro-4-(4-fluoro-1-isopropyl-2-methyl-1H-benzo[d]imidazol-6-yl)pyrimidin-2-yl)amino)pyridin-3-yl)piperazin-1-yl)acetamido)heptyl)amino)-6-(methylamino)nicotinamide]
  activity at 0.01 µM: > 85%
  activity at 0.1 µM: 55 to 85%

## CNc1ccc(C(=O)Nc2ccc(N(C)C)nn2)c(NCCCCCCCCNC(=O)CN2CCN(c3ccc(Nc4ncc(F)c(-c5cc(F)c6nc(C)n(C(C)C)c6c5)n4)nc3)CC2)n1 [CPD-664, N-(6-(dimethylamino)pyridazin-3-yl)-2-((8-(2-(4-(6-((5-fluoro-4-(4-fluoro-1-isopropyl-2-methyl-1H-benzo[d]imidazol-6-yl)pyrimidin-2-yl)amino)pyridin-3-yl)piperazin-1-yl)acetamido)octyl)amino)-6-(methylamino)nicotinamide]
  activity at 0.01 µM: > 85%
  activity at 0.1 µM: > 85%

## CNc1ccc(C(=O)Nc2ccc(N(C)C)nn2)c(NCCOCCNC(=O)CN2CCN(c3ccc(Nc4ncc(F)c(-c5cc(F)c6nc(C)n(C(C)C)c6c5)n4)nc3)CC2)n1 [CPD-665, N-(6-(dimethylamino)pyridazin-3-yl)-2-((2-(2-(2-(4-(6-((5-fluoro-4-(4-fluoro-1-isopropyl-2-methyl-1H-benzo[d]imidazol-6-yl)pyrimidin-2-yl)amino)pyridin-3-yl)piperazin-1-yl)acetamido)ethoxy)ethyl)amino)-6-(methylamino)nicotinamide]
  activity at 0.01 µM: 55 to 85%
  activity at 0.1 µM: > 85%

## CNc1ccc(C(=O)Nc2ccc(N(C)C)nn2)c(NCCC(=O)NC2CCC(Nc3ncc4ccc(=O)n(C5CCCC5)c4n3)CC2)n1 (stereo not shown) [CPD-666, 2-((3-((4-((8-cyclopentyl-7-oxo-7,8-dihydropyrido[2,3-d]pyrimidin-2-yl)amino)cyclohexyl)amino)-3-oxopropyl)amino)-N-(6-(dimethylamino)pyridazin-3-yl)-6-(methylamino)nicotinamide]
  activity at 0.01 µM: > 85%
  activity at 0.1 µM: > 85%

## CNc1ccc(C(=O)Nc2ccc(N(C)C)nn2)c(NCCCC(=O)NC2CCC(Nc3ncc4ccc(=O)n(C5CCCC5)c4n3)CC2)n1 (stereo not shown) [CPD-667, 2-((4-((4-((8-cyclopentyl-7-oxo-7,8-dihydropyrido[2,3-d]pyrimidin-2-yl)amino)cyclohexyl)amino)-4-oxobutyl)amino)-N-(6-(dimethylamino)pyridazin-3-yl)-6-(methylamino)nicotinamide]
  activity at 0.01 µM: > 85%
  activity at 0.1 µM: > 85%
